From patent publication US20120142750A1, “INDOLEAMINE 2,3-DIOXYGENASE PATHWAYS IN THE GENERATION OF REGULATORY T CELLS” (Regents of the University of Minnesota, priority 2005, published 2012)
“Also recorded” adds a separate entry of the source.

How the values were obtained:
[1] = system: PDCs; assay: Surface expression of CD80, CD86, HLA-DR on PDCs (flow cytometry); format: cell-based, human; details: 1MT added to priming MLRs with CpG ODN
Text: PDC, B, and T cell isolation. Human PBMC were isolated under IRE-approved protocols from apheresis products of healthy blood donors (Memorial Blood Centers of Minnesota, Minneapolis, Minn.) by Ficoll-Paque density gradient centrifugation. Plasmascytoid dendritic cells (PDCs) were isolated from PBMC using BDCA-4 cell isolation kits and the MACS system, followed by staining and sorting to collect purified Lin-CD11c-CD123+ PDCs, as reported previously (Moseman et al., J Immunol 2004; 173:4433-4442). CD4+CD45RA+ naïve T cells were isolated from PBMC using CD4 T cell isolation kits followed by positive selection with CD45RA microbeads. The purity of naïve CD4+ T cells was greater than 95% for CD4+CD45RA+ expression and less than 0.5% for CD25+ expression. B cells were isolated from PBMC with CD19 microbeads and the MACS system to greater than 98% purity of CD19+ B cells. All cell isolations kits and microbeads were from Miltenyi Biotec (Bergisch Gladbach, Germany).
Flow Cytometry. Fluorescent antibodies (Abs) against human CD3, CD4, CD11c, CD19, CD25, CD40, CD45, CD45RA, CD45RO, CD80, CD86, CD123, HLA-DR, lineage (Lin) markers, and isotype control Abs were from BD Biosciences (San Diego, Calif.). […] Mean fluorescence intensity (MFI) and positive cell percentages of stained cells were determined by flow cytometry.

[2] = system: primed CD4+ T cells / naive CD4+ T cells; assay: MLR assays of function of CpG-PDC or CpG-B cell primed CD4+ T cells; format: cell-based, human
Protocol: In vitro priming of naive CD4+ T cells. CD4+CD45RA+ naive T cells were primed with allogeneic PDCs or irradiated B cells (30 Gy) at a 10:1 ratio (e.g., 2×10^6 naive CD4+ T cells plus 2×105 PDCs per well in 24-well plates) with ODN 2216 or ODN 2006 present in RPMI 1640 medium supplemented with 10% human AB serum. 1 MT and/or KYN were added into CpG ODN-PDC or CpG ODN-B cell mediated naive CD4+ T cell priming cultures as indicated. In some experiments, blocking Abs against CD80, CD86, HLA-DR or the control IgG Ab (R&D Systems, Minneapolis, Minn.) were added to CpG-PDC-mediated naive CD4+ T cell priming cultures at a final Ab concentration ranging from 0.1 to 10 μg/ml. After 7 days, primed T cells in cultures were harvested, assessed for their surface phenotype, intracellular Foxp3 expression, and their function in MLR assays.
MLR assays. […] In all T cell proliferation assays, plates were incubated at 37° C. for 5 days and pulsed with 1 μCi of 3H-thymidine per well for the last 18 hours before harvesting. All determinations were carried out in triplicate and 3H-thymidine incorporation was determined.

[3] = system: BM3 T cells; assay: Ex vivo T cell suppression assays with sorted Tregs from treated mice; format: in vivo, mouse
Protocol: CpG Oligonucleotides. CpG-ODNs (CpG no. 1826, […]; (SEQ ID NO:4) and sequence matched non-CpG-B no. 2138, […] (SEQ ID NO:5)) with fully phosphorothioate backbones were purchased from Coley Pharmaceuticals. Mice were injected with relatively high doses of ODNs (50 μg/mouse, i/v) as described (Mellor et al. J Immunol 2005; 175:5601-5605).
1-methyl-[D]-tryptophan (1 mT). 1 mT (catalog number 45, 248-3, Sigma) was prepared as a 20 mM stock solution in 0.1 N NaOH, adjusted to pH 7.4, and stored at −20° C. protected from light. For in vitro use, 1 mT was added to MLRs to a final concentration of 100 μM. For in vivo treatment, slow-release polymer pellets (*5 mg/day) containing 1 mT or vehicle alone were inserted under the dorsal skin as described (Munn et al. Science 1998; 281:1191-1193) 24 hours before CpG treatment.
Preparative flow cytometry to sort CD4+ T cells subsets. CD4+ T cell subsets were purified using a Mo-Flo cytometer as described (Mellor et al. J Immunol 2005; 175:5601-5605; Munn et al. Immunity 2005; 22:1-10).
Ex vivo T cell suppression assays. Suppression assays were performed by adding sorted CD4+ cells to T cell proliferation assays (72 hour thymidine incorporation assays) containing responder H-2K^b-specific splenocytes from BM3 TCR transgenic mice (nylon-wool enriched) and CD11c+ splenocytes (AutoMacs enriched) from CBK (H-2K^b transgenic CBA) mice prepared as described (Mellor et al. J Immunol 2005; 175:5601-5605).

Cn1cc(C[C@@H](N)C(=O)O)c2ccccc21 [Inhibitor 1MT, 1-methyl-D-tryptophan]
expression of cell surface maturation markers by PDCs (CD80, CD86, HLA-DR) [1]: insignificant effects
T cell responses after priming with CpG ODN-activated B cells (control for nonspecific effects) ([2]; 1MT added to priming MLRs with IDO-negative B cells): no nonspecific effect
anergy/hyporesponsiveness of primed CD4+ T cells to subsequent alloantigen stimulation ([2]; 1MT present during priming): prevented CD4+ T cells from becoming anergic/hyporesponsive
suppressor/regulatory activity of PDC-primed T cells on proliferation of naive CD4+ T cells in MLR ([2]; 1MT present during priming): blocked the generation of suppressor/regulatory activity; also recorded: markedly reduced
reversal of Treg-mediated suppression by IDO inhibitor added to parallel cultures ([3]; 100 μM in culture, Tregs from CpG-treated mice): did not reverse suppression
CpG-mediated stimulation of Treg suppressive functions, IDO inhibitor given to Treg donor mice ([3]; slow-release pellets 24 hours before CpG, IDO-WT mice): prevented CpG-mediated stimulation of Treg suppressive functions
